This passage reports remaining activity results from article PMC8286840, “Identifying SARS-CoV-2 antiviral compounds by screening for small molecule inhibitors of Nsp3 papain-like protease” (Biochemical Journal, 2021).

Assay [1] deals with T1, SARS-CoV-2 PLpro (nsp3 1564–1878) (Severe acute respiratory syndrome coronavirus 2, UniProt P0DTD1). Description: biochemical. Details: FRET-quenched peptide (Pro3) cleavage by PLpro, 10 min pre-incubation, slope over 20 min, normalised to no-compound control. As to conditions: low concentration screen, read-out: % of control remaining.
Assay [2] has as its target T1, SARS-CoV-2 PLpro (nsp3 1564–1878). As to the kind of experiment: biochemical. The arrangement: FRET-quenched peptide (Pro3) cleavage by PLpro, 10 min pre-incubation, slope over 20 min, normalised to no-compound control. As to conditions: high concentration screen, read-out: % of control remaining.

Where a name gives a salt, the structure may show the parent alone. Read-outs that look alike come from different tables or passages of the source. Where no end group is shown, it is not given here.

For the molecule `COc1ccccc1Oc1c(NS(=O)(=O)c2ccc(C(C)(C)C)cc2)nc(-c2ncccn2)nc1OCCO` [Bosentan (hydrate)], the remaining activity at 1.25 µM in assay [1] (Well no.=6461) amounted to 102%. Also, in assay [2] (Well no.=6461), the remaining activity at 3.75 µM came to 101%.
For the molecule `O=C1CC[C@@H](C(=O)O)N1` [L-Pyroglutamic acid], the remaining activity at 1.25 µM in assay [1] (Well no.=6783) was 102%. Moreover, the remaining activity at 3.75 µM in assay [2] (Well no.=6783) turned out to be 104%.
`Cc1cn([C@H]2C=C[C@@H](CO)O2)c(=O)[nH]c1=O` [Stavudine]: the remaining activity at 1.25 µM in assay [1] (Well no.=7916) worked out at 99.6%. Further, in assay [2] (Well no.=7916), the remaining activity at 3.75 µM worked out at 96.8%.
Turning to `CCN(CC)C(=O)N[C@@H]1C[C@@H]2c3cccc4[nH]cc(c34)C[C@H]2N(C)C1` [R(+)-Terguride], in assay [1] (Well no.=1330), the remaining activity at 1.25 µM was 103%. Moreover, in assay [2] (Well no.=1330), the remaining activity at 3.75 µM was found to be 104%.
On to `CCc1nc(-c2cccc(C)c2)c(-c2ccnc(NC(=O)c3ccccc3)c2)s1` [TAK-715], for which, in assay [1] (Well no.=2751), the remaining activity at 1.25 µM was found to be 99.2%. In addition, in assay [2] (Well no.=2751), the remaining activity at 3.75 µM was 104%.
Consider `CC(=O)C(=O)O` [Pyruvic acid], for which the remaining activity at 1.25 µM in assay [1] (Well no.=6683) was found to be 92.9%. Also, in assay [2] (Well no.=6683), the remaining activity at 3.75 µM is 94.5%.
On to `O=C(c1ccc(OCCCc2c[nH]cn2)cc1)C1CC1` [Ciproxifan], for which, in assay [1] (Well no.=5316), the remaining activity at 1.25 µM came out at 101%. The remaining activity at 3.75 µM in assay [2] (Well no.=5316) was 97%.
For the molecule `COc1ccc(-c2nn3c(-c4ccccn4)nnc3s2)cc1OC` [Cardionogen-2], the remaining activity at 1.25 µM in assay [1] (Well no.=5937) was 102%. For the same molecule, the remaining activity at 3.75 µM in assay [2] (Well no.=5937) was 99.4%.
On to `C=C(CC)C(=O)c1ccc(OCC(=O)O)c(Cl)c1Cl` [Ethacrynic Acid], for which the remaining activity at 1.25 µM in assay [1] (Well no.=1865) stood at 95.6%. Further, the remaining activity at 3.75 µM in assay [2] (Well no.=1865) is 94.6%.
In the case of `C[C@@H]1CC[C@@]2(NC1)O[C@H]1C[C@H]3[C@@H]4CC=C5C[C@@H](O)CC[C@]5(C)[C@H]4CC[C@]3(C)[C@H]1[C@@H]2C` [Solasodine], in assay [1] (Well no.=3467), the remaining activity at 1.25 µM was determined as 97.1%. Further, in assay [2] (Well no.=3467), the remaining activity at 3.75 µM stood at 95.3%.
On to `COC(=O)[C@@H]1[C@H]2C[C@H]3c4[nH]c5ccccc5c4CCN3C[C@@H]2CC[C@@H]1O` [Yohimbine hydrochloride], for which the remaining activity at 1.25 µM in assay [1] (Well no.=1198) is 105%. Moreover, in assay [2] (Well no.=1198), the remaining activity at 3.75 µM was found to be 104%.
With `C[C@@H]1O[C@@H]1P(=O)(O)O` [Phosphomycin disodium], the remaining activity at 1.25 µM in assay [1] (Well no.=1148) turned out to be 96.5%. In addition, the remaining activity at 3.75 µM in assay [2] (Well no.=1148) was 93.1%.
In the case of `O=C1CCC(N2C(=O)c3ccccc3C2=O)C(=O)N1` (racemic), in assay [1] (Well no.=1282), the remaining activity at 1.25 µM stood at 107%. Moreover, the remaining activity at 3.75 µM in assay [2] (Well no.=1282) was found to be 105%.
With `NC(=O)c1cc(S(=O)(=O)Nc2ccc3cc(C4CC4)[nH]c3c2)ccc1O` [CD73-IN-1], the remaining activity at 1.25 µM in assay [1] (Well no.=8325) was determined as 95.7%. The remaining activity at 3.75 µM in assay [2] (Well no.=8325) came to 94.5%.
Regarding `CC1(C)O[C@H]2CC(=O)OC[C@]23[C@H]2CC[C@@]4(C)[C@H](c5ccoc5)OC(=O)[C@H]5O[C@]54[C@]2(C)C(=O)C[C@@H]13` [Limonin], the remaining activity at 1.25 µM in assay [1] (Well no.=3655) stood at 99.2%. Besides, the remaining activity at 3.75 µM in assay [2] (Well no.=3655) worked out at 102%.
As to KIPYIL [Neuromedin N], the results for the remaining activity at 1.25 µM in assay [1] (Well no.=8061) and in assay [1] (Well no.=8502) were 91.8% and 105%, respectively. In addition, the remaining activity at 3.75 µM in assay [2] (Well no.=8061) was 90.1%; in assay [2] (Well no.=8502), 102%.
As to `NCC[C@H](O)C(=O)N[C@@H]1C[C@H](N)[C@@H](O[C@H]2O[C@H](CN)[C@@H](O)[C@H](O)[C@H]2O)[C@H](O)[C@H]1O[C@H]1O[C@H](CO)[C@@H](O)[C@H](N)[C@H]1O` [Amikacin hydrate], the remaining activity at 1.25 µM in assay [1] (Well no.=5355) stood at 97.3%. For the same molecule, the remaining activity at 3.75 µM in assay [2] (Well no.=5355) amounted to 101%.
For the molecule `C[C@H](Cc1cc2c(c(C(N)=O)c1)N(CCCO)CC2)NCCOc1ccccc1OCC(F)(F)F` [Silodosin], the remaining activity at 1.25 µM in assay [1] (Well no.=6759) turned out to be 101%. In addition, the remaining activity at 3.75 µM in assay [2] (Well no.=6759) worked out at 102%.
`O=C(O)/C=C/c1ccc(-c2ccc(O)c(C34CC5CC(CC(C5)C3)C4)c2)cc1` [Adarotene]: the remaining activity at 1.25 µM in assay [1] (Well no.=6342) came out at 101%. Moreover, in assay [2] (Well no.=6342), the remaining activity at 3.75 µM was determined as 99%.
Consider `O=C(O)c1cc2cc(F)ccc2[nH]1` [5-Fluoroindole-2-carboxylic acid], for which the remaining activity at 1.25 µM in assay [1] (Well no.=339) worked out at 99.4%. Also, the remaining activity at 3.75 µM in assay [2] (Well no.=339) came to 97.9%.
`O=c1cc(-c2ccccc2)oc2cc(O)ccc12` [7-Hydroxyflavone]: the remaining activity at 1.25 µM in assay [1] (Well no.=3293) was 97.8%. Further, the remaining activity at 3.75 µM in assay [2] (Well no.=3293) came to 103%.
As to `CC(N)Cc1c[nH]c2ccc(O)cc12` (stereo not drawn) [alpha-Methyl-5-hydroxytryptamine maleate], the remaining activity at 1.25 µM in assay [1] (Well no.=895) worked out at 106%. The remaining activity at 3.75 µM in assay [2] (Well no.=895) is 106%.
Regarding `CCOC(=O)[N-]c1c[n+](N2CCOCC2)no1` [Molsidomine], the remaining activity at 1.25 µM in assay [1] (Well no.=780) was found to be 110%; in assay [1] (Well no.=1803), 97.9%. The remaining activity at 3.75 µM in assay [2] (Well no.=780) was 104%; in assay [2] (Well no.=1803) it was 96.1%.
Regarding `O=P(O)(O)CP(=O)(O)OC[C@H]1O[C@@H](n2cnc3c(NCc4ccccc4)ncnc32)[C@H](O)[C@@H]1O` [PSB-12379], in assay [1] (Well no.=8745), the remaining activity at 1.25 µM was found to be 105%. The remaining activity at 3.75 µM in assay [2] (Well no.=8745) was 105%.
Take `CCCc1nc(C(C)(C)O)c(C(=O)OCc2oc(=O)oc2C)n1Cc1ccc(-c2ccccc2-c2nnn[nH]2)cc1` [Olmesartan (medoxomil)]: in assay [1] (Well no.=7579), the remaining activity at 1.25 µM was 98.2%. For the same molecule, the remaining activity at 3.75 µM in assay [2] (Well no.=7579) is 92.2%.
For the molecule `N[C@@H](Cc1ccc(O)c(O)c1)C(=O)O` [L-DOPA], in assay [1] (Well no.=6861), the remaining activity at 1.25 µM was 91.2%. Besides, the remaining activity at 3.75 µM in assay [2] (Well no.=6861) is 92.3%.
For `CCCCCCCCCCCCCC(=O)O[C@@H]1[C@@H](C)[C@@]2(O)[C@@H](C=C(CO)C[C@]3(O)C(=O)C(C)=C[C@@H]23)[C@@H]2C(C)(C)[C@]12OC(C)=O` [Phorbol 12-myristate 13-acetate], the remaining activity at 1.25 µM in assay [1] (Well no.=1493) worked out at 101%; in assay [1] (Well no.=3078), 102%. The remaining activity at 3.75 µM in assay [2] (Well no.=1493) came to 97.5%; in assay [2] (Well no.=3078), 105%.
Consider `O=C(O)CCC(=O)c1ccc(-c2ccccc2)cc1` [Fenbufen], for which, in assay [1] (Well no.=2078), the remaining activity at 1.25 µM came out at 100%. The remaining activity at 3.75 µM in assay [2] (Well no.=2078) turned out to be 102%.
With `CN1CCc2cc(Cl)c(O)cc2[C@@H](c2ccccc2)C1` [SCH 23390 (hydrochloride)], in assay [1] (Well no.=7813), the remaining activity at 1.25 µM was determined as 109%. In assay [2] (Well no.=7813), the remaining activity at 3.75 µM is 102%.
For the molecule `O=c1[nH]c(=O)n(C2CCCO2)cc1F` (centres unmarked) [Ftorafur], the remaining activity at 1.25 µM in assay [1] (Well no.=2164) amounted to 97.3%. Also, the remaining activity at 3.75 µM in assay [2] (Well no.=2164) is 99.1%.
Turning to `Cc1cc([C@@H]2CCCN2C)on1` [ABT-418], in assay [1] (Well no.=307), the remaining activity at 1.25 µM worked out at 97.8%. For the same molecule, in assay [2] (Well no.=307), the remaining activity at 3.75 µM is 99.2%.
